Columns and labels:
Format in all cases: cell-based, loblolly pine
cell line M = assay: Effect of maltose on embryo production in liquid EDM, cell line M; conditions: highest (60 g/L) concentration of maltose
Method: (§1) Suspension cultures of the following four loblolly pine genotypes, I, B, M, and N, were tested. Each cell line or genotype was initiated from an individual immature seed explant derived from a control pollinated cross of select parent trees of loblolly pine. Five variations in the Liquid EDM listed in Table 1 were tested for development of loblolly pine somatic embryos in liquid. The five treatments were coded 1, 2, 3, 4 and 5 according to the concentration of maltose in the liquid medium, 0, 10, 20, 40 and 60 g/l, respectively. The proliferating embryogenic suspension cultures were poured in the side arm of the flask for 30 minutes to measure the settled cell volume (SCV) as described in example 2. A sub-sample of 12 ml of proliferating liquid suspension was removed for baseline development plating on five plates of MSG gelled embryo development medium for comparative purposes. The SCV measurement was recorded and the proliferating liquid suspensions were distributed among the treatments listed above. […] The SCV measurements were recorded and the flasks were placed on the shaker in the dark, 24° C. growth chamber and monitored on a weekly basis for five weeks as described below. the liquid embryo development suspensions were poured into the sidearm and allowed to settle in the sidearm for 30 minutes and the SCV measured and recorded. […]

cell line B = assay: Effect of maltose on embryo production in liquid EDM, cell line B; conditions: for Total Avg. Potential Embryos: 30 ml
Method: (§2) Suspension cultures of the following four loblolly pine genotypes, I, B, M, and N, were tested. Each cell line or genotype was initiated from an individual immature seed explant derived from a control pollinated cross of select parent trees of loblolly pine. Five variations in the Liquid EDM listed in Table 1 were tested for development of loblolly pine somatic embryos in liquid. The five treatments were coded 1, 2, 3, 4 and 5 according to the concentration of maltose in the liquid medium, 0, 10, 20, 40 and 60 g/l, respectively. The proliferating embryogenic suspension cultures were poured in the side arm of the flask for 30 minutes to measure the settled cell volume (SCV) as described in example 2. A sub-sample of 12 ml of proliferating liquid suspension was removed for baseline development plating on five plates of MSG gelled embryo development medium for comparative purposes. The SCV measurement was recorded and the proliferating liquid suspensions were distributed among the treatments listed above. Each treatment flask was initiated by placing 15 milliliters of 100% SCV onto a raft placed on a Buchner funnel and the excess liquid was removed through gentle vacuum aspiration. The tissues were then re-suspended into a 250 ml sidearm flask with 30 milliliters of Liquid Embryo Development Media with various maltose concentrations (from 0 to 60 g/l). Once the cultures were re-suspended in liquid EDM the suspensions were poured in the sidearm to settle in the sidearm for thirty minutes to measure the SCV. Each treatment had three replicate flasks. The SCV measurements were recorded and the flasks were placed on the shaker in the dark, 24° C. growth chamber and monitored on a weekly basis for five weeks as described below. the liquid embryo development suspensions were poured into the sidearm and allowed to settle in the sidearm for 30 minutes and the SCV measured and recorded. Each flask was sub-cultured as needed by adding liquid EDM to maintain the suspension density at 50%. This sequence of events was repeated at week two and week three. no media manipulation. The cultures were observed and placed back on the shaker. At week five the embryos were harvested as described in example 6 with the exception of using a 560 μm mesh to wash embryos. Half of the embryos were conditioned as described in example 6 and half were conditioned by the method described in U.S. Application Ser. No. 60/675, 949 simply for comparative purposes.

cell line I = assay: Effect of maltose on embryo production in liquid EDM, cell line I; conditions: for Total Avg. Potential Embryos: 30 ml
Method: as §2

cell line N = assay: Effect of maltose on embryo production in liquid EDM, cell line N; conditions: maltose 0 to 60 g/l
Method: as §1

[1] = system: pine somatic embryos, genotype I; assay: Germination of embryos developed at varying maltose concentration, genotype I
Method: (§3) In this particular experiment, after the 3 week conditioning treatment, the embryos on the membrane were placed on modMS germination medium in a lighted culture room at 24° C. After 3 to 5 days the embryos were individually removed from the membrane and transferred directly to the surface of modMS germination medium and cultured for an additional 2 weeks in a lighted growth room at 24° C. Embryo germination, which in this particular instance was estimated by identifying the emergence of a root from the embryo that was at least 1 cm long during this 2 week time period. Twenty-nine percent of the embryos harvested from liquid EDM germinated. Embryos were harvested and prepared for germination using two conditioning treatments: (1) exposure to high relative humidity for 3 weeks at 24° C. […] Embryos were then germinated as previously described in Example 5.

[2] = system: pine somatic embryos, genotype B; assay: Germination of embryos developed at varying maltose concentration, genotype B
Method: as §3

[3] = cell line B, maltose 10 g/l, week 5
[4] = cell line B, maltose 20 g/l, week 5
[5] = cell line B, maltose 40 g/l, week 5
[6] = cell line B, maltose 60 g/l, week 5
[7] = cell line I, maltose 10 g/l, week 5
[8] = cell line I, maltose 20 g/l, week 5
[9] = cell line I, maltose 40 g/l, week 5
[10] = cell line I, maltose 60 g/l, week 5
[11] = Cond 1: 3 wk HRH, maltose conc. 1%
[12] = Cond 1: 3 wk HRH, maltose conc. 2%
[13] = Cond 1: 3 wk HRH, maltose conc. 4%
[14] = Cond 1: 3 wk HRH, maltose conc. 6%
[15] = Cond 2: 4 wk cold & 3 wk HRH, maltose conc. 1%
[16] = Cond 2: 4 wk cold & 3 wk HRH, maltose conc. 2%
[17] = Cond 2: 4 wk cold & 3 wk HRH, maltose conc. 4%
[18] = Cond 2: 4 wk cold & 3 wk HRH, maltose conc. 6%

`OC[C@H]1O[C@H](O[C@H]2[C@H](O)[C@@H](O)C(O)O[C@@H]2CO)[C@H](O)[C@@H](O)[C@@H]1O` (mixture of isomers) [maltose] was tested, and the “response to increasing maltose” value (cell line M) was “producing embryos that had not fully development”, the “production of fully developed embryos” value (cell line B; cell line B, all liquid EDM treatments that contained maltose (10 to 60 g/l)) was “Fully developed embryos were produced” and the “Avg. Embryos” value (cell line B; cell line B, maltose 10 g/l) was 189 per g tissue. The “Total Avg. Potential Embryos” value (cell line B; cell line B, maltose 10 g/l) was 464 per flask, the “Avg. Embryos” value (cell line B; [3]) was 17 per ml and the “Avg. ± st. dev. Embryos harvested” value (cell line B; [3]) was 232 ± 84 per 15 ml. The “Avg. Embryos” value (cell line B; cell line B, maltose 20 g/l) was 218 per g tissue, the “Total Avg. Potential Embryos” value (cell line B; cell line B, maltose 20 g/l) was 526 per flask and the “Avg. Embryos” value (cell line B; [4]) was 18 per ml. The “Avg. ± st. dev. Embryos harvested” value (cell line B; [4]) was 263 ± 76 per 15 ml, the “Avg. Embryos” value (cell line B; cell line B, maltose 40 g/l) was 165 per g tissue and the “Total Avg. Potential Embryos” value (cell line B; cell line B, maltose 40 g/l) was 422 per flask. The “Avg. Embryos” value (cell line B; [5]) was 15 per ml, the “Avg. ± st. dev. Embryos harvested” value (cell line B; [5]) was 211 ± 281 per 15 ml and the “Avg. Embryos” value (cell line B; cell line B, maltose 60 g/l) was 89 per g tissue. For the same compound, the “Total Avg. Potential Embryos” value (cell line B; cell line B, maltose 60 g/l) was 240 per flask, the “Avg. Embryos” value (cell line B; [6]) was 8 per ml and the “Avg. ± st. dev. Embryos harvested” value (cell line B; [6]) was 120 ± 20 per 15 ml. The “average number of embryos produced per ml of total media used” value (cell line B; line B, across maltose levels from 10 to 60 g/l) was 5.6 per ml, the “production of fully developed embryos” value (cell line I; cell line I, all liquid EDM treatments that contained maltose (10 to 60 g/l)) was “Fully developed embryos were produced” and the “Avg. Embryos” value (cell line I; cell line I, maltose 10 g/l) was 206 per g tissue. For the same compound, the “Total Avg. Potential Embryos” value (cell line I; cell line I, maltose 10 g/l) was 464 per flask, the “Avg. Embryos” value (cell line I; [7]) was 16 per ml and the “Avg. ± st. dev. Embryos harvested” value (cell line I; [7]) was 232 ± 14 per 15 ml. For the same compound, the “Avg. Embryos” value (cell line I; cell line I, maltose 20 g/l) was 216 per g tissue, the “Total Avg. Potential Embryos” value (cell line I; cell line I, maltose 20 g/l) was 486 per flask and the “Avg. Embryos” value (cell line I; [8]) was 14 per ml. The “Avg. ± st. dev. Embryos harvested” value (cell line I; [8]) was 243 ± 60 per 15 ml, the “Avg. Embryos” value (cell line I; cell line I, maltose 40 g/l) was 237 per g tissue and the “Total Avg. Potential Embryos” value (cell line I; cell line I, maltose 40 g/l) was 526 per flask. For the same compound, the “Avg. Embryos” value (cell line I; [9]) was 16 per ml, the “Avg. ± st. dev. Embryos harvested” value (cell line I; [9]) was 263 ± 22 per 15 ml and the “Avg. Embryos” value (cell line I; cell line I, maltose 60 g/l) was 290 per g tissue. For the same compound, the “Total Avg. Potential Embryos” value (cell line I; cell line I, maltose 60 g/l) was 702 per flask, the “Avg. Embryos” value (cell line I; [10]) was 20 per ml and the “Avg. ± st. dev. Embryos harvested” value (cell line I; [10]) was 351 ± 66 per 15 ml. For the same compound, the “average number of embryos produced per total volume of medium used (discarded and saved)” value (cell line I; line I, 40 g/l maltose, 70 ml medium) was 7.5 embryos per total ml media used, the “average number of embryos produced per ml of total media used” value (cell line I; line I, across maltose levels from 10 to 60 g/l) was 8.3 per ml and the “response to maltose treatments” value (cell line N) was “did not respond”. The Germination [1, 11] was 37%, the Germination [1, 12] was 40% and the Germination [1, 13] was 33%. For the same compound, the Germination [1, 14] was 19%, the Germination [1, 15] was 21% and the Germination [1, 16] was 55%. It also gave a Germination [1, 17] of 48%, a Germination [1, 18] of 27% and a Germination [2, 11] of 9%. The Germination [2, 12] was 8%, the Germination [2, 13] was 8% and the Germination [2, 14] was 41%. The Germination [2, 15] was 5%, the Germination [2, 16] was 3% and the Germination [2, 17] was 24%. For the same compound, the Germination [2, 18] was 29%.

— patent US20130143256A1, “LIQUID-BASED METHOD FOR PRODUCING PLANT EMBRYOS” (ArborGen Inc., priority 2006, published 2013)
